Legend:
[1] = after 8 hours incubation at 4° C., FIG. 22

Structure (SMILES)	trapping of the molecule by PEEK	amount of nicotine remaining in a PDMS plate [1]	amount of nicotine remaining in a PEEK plate (8 h)
CN(CCCC(=O)c1cccnc1)N=O [NNK, 4-(methylnitrosamino)-1-(3-pyridyl)-1-butanone]	not trapped by the material	–	–
CN1CCCC1c1cccnc1 (stereo not shown) [nicotine]	not trapped by the material	about 35%	about 100%
